From ChEMBL document CHEMBL4431361, “Development of indole sulfonamides as cannabinoid receptor negative allosteric modulators” (Bioorg Med Chem Lett, 2016)

How the values were obtained:
Cannabinoid receptor 1 = Cannabinoid receptor 1 (Homo sapiens, UniProt P21554); test: Negative allosteric modulation of human CB1 receptor expressed in CHO-K1 cells assessed as inhibition of CP55940 induced beta arrestin recruitment preincubated for 30 mins followed by addition of CP55940 for 90 mins by chemiluminescence assay; type: functional, cell-based
[1] = Apparent permeability of the compound at 10 uM after 5 hrs by PAMPA; type: ADME
[2] = Tmax in NMRI mouse at 10 mg/kg, po; type: ADME, organism-based; settings: in vivo
[3] = Cmax in NMRI mouse blood at 10 mg/kg, po; type: ADME, organism-based; parameters: dose 10 mg/kg, route oral
[4] = Ratio of drug level in NMRI mouse brain to blood after 4 hrs; type: ADME, tissue-based
[5] = Half life in NMRI mouse at 10 mg/kg, po; type: ADME, organism-based; settings: in vivo
[6] = AUC (0 to 8 hrs) in NMRI mouse at 10 mg/kg, po; type: ADME, organism-based; parameters: time < 8 hr, dose 10 mg/kg, route oral; settings: in vivo
[7] = Ratio of drug level in […] brain to blood at 30mg/kg, ip after 1 hr by HPLC/MS/MS method; type: ADME, organism-based
[8] = Half life in human liver microsomes at 3 uM in presence of NADPH by LC-MS/MS analysis; type: ADME, Microsome
[9] = Half life in rat liver microsomes at 3 uM in presence of NADPH by LC-MS/MS analysis; type: ADME, Microsome
[10] = Ratio of drug level in NMRI mouse brain to blood after 2 hrs; type: ADME, tissue-based

Cannabinoid receptor 1, sequence (P21554 whole entry): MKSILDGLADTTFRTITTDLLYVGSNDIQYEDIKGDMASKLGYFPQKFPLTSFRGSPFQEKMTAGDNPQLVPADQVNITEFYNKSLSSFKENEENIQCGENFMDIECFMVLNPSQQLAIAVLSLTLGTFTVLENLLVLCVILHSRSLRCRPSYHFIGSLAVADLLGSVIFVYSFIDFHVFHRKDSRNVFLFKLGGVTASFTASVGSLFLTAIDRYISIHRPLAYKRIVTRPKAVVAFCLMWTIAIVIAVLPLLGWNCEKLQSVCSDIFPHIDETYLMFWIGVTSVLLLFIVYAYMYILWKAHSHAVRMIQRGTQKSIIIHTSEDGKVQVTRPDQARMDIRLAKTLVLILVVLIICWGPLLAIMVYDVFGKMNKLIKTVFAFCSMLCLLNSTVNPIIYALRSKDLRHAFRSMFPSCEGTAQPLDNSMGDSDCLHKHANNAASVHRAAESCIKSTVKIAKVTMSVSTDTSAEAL

| Structure (SMILES) | IC50 (Cannabinoid receptor 1) [µM] | also measured |
| --- | --- | --- |
| O=C(O)c1ccc(-c2ccc(CNS(=O)(=O)c3cc4ccccc4[nH]3)cc2)cc1 | > 1 |  |
| Cc1c(S(=O)(=O)NCc2ccc(C(F)(F)F)cc2)[nH]c2ccccc12 | 0.25 |  |
| Cc1c(S(=O)(=O)NCc2ccc(Cl)cc2)[nH]c2ccccc12 | 0.4 |  |
| Cc1cc(CNS(=O)(=O)c2cc3cc(Cl)ccc3[nH]2)ccc1-c1ccc(F)cc1 | > 1 |  |
| Cc1c(S(=O)(=O)NCCc2ccccc2)[nH]c2ccccc12 | 0.2 to 1 | half-life at 3 µM [8]: 3 min |
| COc1ccc(CNS(=O)(=O)c2[nH]c3ccccc3c2C)cc1 | 0.2 |  |
| O=S(=O)(NCc1ccc(-c2ccc(F)cc2)cn1)c1cc2cc(Br)ccc2[nH]1 | 0.009 | half-life at 3 µM [9]: 25 min |
| CN(C)c1ccc(-c2ccc(CNS(=O)(=O)c3cc4ccccc4[nH]3)cc2)cc1 | 0.003 |  |
| COc1ccc(CNS(=O)(=O)c2cc3ccccc3[nH]2)cc1 | 0.2 to 0.4 | half-life at 3 µM [8]: 2 min |
| Cc1c(S(=O)(=O)NCCN2CCOCC2)[nH]c2ccccc12 | > 1 |  |
| COCc1c(S(=O)(=O)NCc2ccc(-c3ccccc3)cc2)[nH]c2ccccc12 | 0.01 |  |
| Cc1c(S(=O)(=O)NCCc2ccc(N3CCOCC3)cc2)[nH]c2ccccc12 | > 1 |  |
| O=S(=O)(NCc1ccc(-c2ccc(F)cc2F)cn1)c1cc2cc(Br)ccc2[nH]1 | 0.004 | half-life at 3 µM [9]: 33 min; half-life at 3 µM [8]: 53 min |
| Cc1c(S(=O)(=O)NCCc2ccc(N3CCCCC3)cc2)[nH]c2ccccc12 | 0.2 |  |
| COc1cc(-c2ccc(CNS(=O)(=O)c3cc4ccccc4[nH]3)cc2)ccc1O | 0.033 |  |
| Cc1c(S(=O)(=O)NCc2ccccc2)[nH]c2ccccc12 | > 1 |  |
| O=S(=O)(NCc1ccc(-c2ccc(F)cc2)cc1)c1cc2ccccc2[nH]1 | 0.001 | half-life at 3 µM [9]: < 15 min |

| Structure (SMILES) | IC50 (Cannabinoid receptor 1) [µM] | also measured |
| --- | --- | --- |
| Cc1ccc(CNS(=O)(=O)c2[nH]c3ccccc3c2C)cc1 | 0.2 | half-life at 3 µM [8]: 7 min |
| Cc1ccc(-c2ccc(CNS(=O)(=O)c3cc4ccccc4[nH]3)cc2)cc1 | 0.003 |  |
| CCc1c(S(=O)(=O)NCc2ccc(Cl)cc2)[nH]c2ccc(Cl)cc12 | > 1 |  |
| Cc1c(S(=O)(=O)NCCCN2CCOCC2)[nH]c2ccccc12 | > 1 |  |
| O=S(=O)(NCc1ccc(-c2ccccc2)cc1)c1cc2ccccc2[nH]1 | 0.002 |  |
| CCc1c(S(=O)(=O)NCCc2ccc(N3CCOCC3)cc2)[nH]c2ccc(Cl)cc12 | 0.5 | half-life at 3 µM [8]: 10 min |
| Cc1c(S(=O)(=O)NCc2ccccn2)[nH]c2ccccc12 | > 1 |  |
| Cc1cc(-c2ccc(F)cc2)ccc1CNS(=O)(=O)c1cc2cc(Cl)ccc2[nH]1 | > 1 |  |
| Cc1c(S(=O)(=O)NCC2CCCCC2)[nH]c2ccccc12 | > 1 |  |
| Cc1c(S(=O)(=O)NCc2cccnc2)[nH]c2ccccc12 | > 1 |  |
| O=S(=O)(NCc1ccc(-c2ccccc2)cc1)c1cc2ccc(Cl)cc2[nH]1 | 0.004 | half-life at 3 µM [9]: < 15 min |
| CCc1c(S(=O)(=O)NCCc2ccc(N3CCCCC3)cc2)[nH]c2ccc(Cl)cc12 | 0.12 | half-life at 3 µM [8]: 14 min |
| O=S(=O)(NCc1ccc(-c2ccc(F)nc2)cc1)c1cc2ccc(Cl)cc2[nH]1 | 0.005 | Kp at 2 h [10]: 2.7; half-life at 3 µM [9]: 23 min; half-life at 3 µM [8]: 22 min |
| O=S(=O)(NCc1cccc(-c2ccc(F)cc2)c1)c1cc2ccccc2[nH]1 | 0.137 |  |
| COc1ccc(CNS(=O)(=O)c2cc3cc(OC)ccc3[nH]2)cc1 | 0.4 |  |
| CS(=O)(=O)c1ccc(-c2ccc(CNS(=O)(=O)c3cc4ccccc4[nH]3)cc2)cc1 | 0.015 |  |
| COc1ccc(-c2ccc(CNS(=O)(=O)c3cc4ccccc4[nH]3)cc2)c(OC)c1 | 0.022 |  |

Continued by falling IC50 (Cannabinoid receptor 1), values first:

| IC50 (Cannabinoid receptor 1) [µM] | Structure (SMILES) | also measured |
| --- | --- | --- |
| 0.8 | Cc1c(S(=O)(=O)NCc2ccc(Cl)c(Cl)c2)[nH]c2ccccc12 |  |
| 0.8 | Cc1c(S(=O)(=O)NCc2cccc(Cl)c2)[nH]c2ccccc12 |  |
| 0.5 | COc1ccc(CNS(=O)(=O)c2[nH]c3ccc(Cl)cc3c2C)cc1 |  |
| 0.3 | NC(=O)c1cccc(-c2ccc(CNS(=O)(=O)c3cc4ccccc4[nH]3)cc2)c1 |  |
| 0.3 | Cc1c(S(=O)(=O)NCCc2ccc(N(C)C)cc2)[nH]c2ccccc12 | half-life at 3 µM [8]: 13 min |
| 0.13 | CCc1c(S(=O)(=O)NCCc2ccc(N(C)C)cc2)[nH]c2ccc(Cl)cc12 |  |
| 0.112 | COc1ccc2[nH]c(S(=O)(=O)NCc3ccc(-c4ccc(CO)cc4)cc3)cc2c1 |  |
| 0.085 | Nc1ccc(-c2ccc(CNS(=O)(=O)c3cc4cc(Cl)ccc4[nH]3)cc2)cn1 |  |
| 0.041 | CC(NS(=O)(=O)c1cc2ccccc2[nH]1)c1ccc(-c2ccc(F)cc2)cc1 (configuration not stated) |  |
| 0.04 | COc1ccc2[nH]c(S(=O)(=O)NCc3ccc(-c4ccc(OC(F)(F)F)cc4)cc3F)cc2c1 | half-life at 3 µM [9]: < 15 min |
| 0.021 | O=S(=O)(NCc1ccc(-c2ccc(F)cc2)cc1F)c1cc2cc(Cl)ccc2[nH]1 | half-life at 3 µM [9]: 112 min; half-life at 3 µM [8]: 146 min |
| 0.015 | CS(=O)(=O)c1ccc(-c2ccc(CNS(=O)(=O)c3cc4cc(Cl)ccc4[nH]3)cc2)cc1 | half-life at 3 µM [9]: 36 min; half-life at 3 µM [8]: 41 min |
| 0.012 | O=S(=O)(NCc1ccc(-c2ccc(F)cc2)cc1)c1cc2cc(Br)ccc2[nH]1 | half-life at 3 µM [9]: 130 min |
| 0.012 | O=S(=O)(NCc1ccc(-c2ccccc2)cc1)c1[nH]c2ccccc2c1CO |  |
| 0.012 | O=S(=O)(NCc1ccc(-c2ccsc2)cc1)c1cc2ccccc2[nH]1 |  |
| 0.01 | CCOc1ccc(-c2ccc(CNS(=O)(=O)c3cc4ccccc4[nH]3)cc2)cn1 |  |
| 0.008 | COc1ccc2[nH]c(S(=O)(=O)NCc3ccc(-c4ccc(C#N)cc4)cc3)cc2c1 | half-life at 3 µM [9]: 26 min |
| 0.008 | Cc1c(S(=O)(=O)NCc2ccc(-c3ccccc3)cc2)[nH]c2ccccc12 |  |
| 0.007 | O=S(=O)(NCc1ccc(-c2cccnc2)cc1)c1cc2ccccc2[nH]1 | half-life at 3 µM [9]: < 15 min |
| 0.006 | O=S(=O)(NCc1ccc(-c2ccccc2)cc1)c1cc2cc(Br)ccc2[nH]1 | half-life at 3 µM [9]: < 15 min |
| 0.005 | O=S(=O)(NCc1ccc(-c2ccccc2)cc1)c1cc2ccc(F)cc2[nH]1 |  |
| 0.004 | O=S(=O)(NCc1ccc(-c2ccc(F)nc2F)cc1)c1cc2cc(Cl)ccc2[nH]1 | Papp at 5 h, 10 µM [1]: 141 ×10⁻⁶ cm/s; Tmax [2]: 240 min; Cmax [3]: 672 ng/mL; Kp at 4 h [4]: 0.8; half-life [5]: 474 min; AUC(0-t) at 8 h [6]: 4380 ng·h/mL |
| 0.004 | O=S(=O)(NCc1ccc(-c2ccc(F)cc2F)cc1)c1cc2cc(Cl)ccc2[nH]1 | half-life at 3 µM [9]: 84 min; half-life at 3 µM [8]: 111 min |
| 0.003 | COc1ccc2[nH]c(S(=O)(=O)NCc3ccc(-c4ccc(F)nc4)cc3)cc2c1 | half-life at 3 µM [9]: < 15 min; half-life at 3 µM [8]: < 15 min |
| 0.003 | O=S(=O)(NCc1ccc(-c2ccc(F)cc2F)cn1)c1cc2cc(Cl)ccc2[nH]1 | Papp at 5 h, 10 µM [1]: 53.8 ×10⁻⁶ cm/s; Tmax [2]: 60 min; Kp at 2 h [10]: 3.3; Cmax [3]: 848 ng/mL; half-life [5]: 180 min; AUC(0-t) at 8 h [6]: 4700 ng·h/mL |
| 0.002 | CCc1c(C(=O)NCCc2ccc(N3CCCCC3)cc2)[nH]c2ccc(Cl)cc12 | Papp at 5 h, 10 µM [1]: 1.23 ×10⁻⁶ cm/s; Kp at 1 h [7]: 1.1 |
| 0.002 | COc1ccc(-c2ccc(CNS(=O)(=O)c3cc4ccccc4[nH]3)cc2)cc1 |  |
